Laboratory results reported in paper PMC10072326, “Promising anticancer agents based on 8-hydroxyquinoline hydrazone copper(II) complexes” (Frontiers in Chemistry, 2023).

Tests used:
[1] = system: A-375 cells; assay: Sulforhodamine B (SRB) cell viability assay; format: cell-based; conditions: 72 h
[2] = system: A-549 cells; assay: Sulforhodamine B (SRB) cell viability assay; format: cell-based; conditions: 72 h
[3] = biological target: bovine serum albumin (BSA) (Bos taurus, UniProt P02769); assay: BSA fluorescence quenching; format: binding; design: Affinity constant K ± SD: unit not given here; conditions: for Affinity constant K ± SD: fluorescence quenching, HypSpec2014, 1:1 species assumed
Chain of bovine serum albumin (BSA) (P02769 25-607): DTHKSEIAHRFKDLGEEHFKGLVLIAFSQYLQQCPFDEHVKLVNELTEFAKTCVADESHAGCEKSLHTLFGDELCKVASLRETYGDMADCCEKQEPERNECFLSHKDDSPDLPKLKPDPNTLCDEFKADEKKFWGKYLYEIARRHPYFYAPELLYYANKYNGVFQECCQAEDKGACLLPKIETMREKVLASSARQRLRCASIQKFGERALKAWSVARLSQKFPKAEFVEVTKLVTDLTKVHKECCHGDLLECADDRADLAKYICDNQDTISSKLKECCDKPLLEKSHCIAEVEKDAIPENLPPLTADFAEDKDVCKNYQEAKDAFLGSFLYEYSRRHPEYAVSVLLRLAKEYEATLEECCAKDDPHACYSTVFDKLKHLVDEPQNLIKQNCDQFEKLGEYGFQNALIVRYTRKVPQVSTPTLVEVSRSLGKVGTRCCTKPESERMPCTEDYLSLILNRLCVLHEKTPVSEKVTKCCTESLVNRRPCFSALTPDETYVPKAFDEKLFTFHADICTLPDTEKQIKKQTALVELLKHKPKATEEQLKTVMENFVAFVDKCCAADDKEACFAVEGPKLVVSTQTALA
Experimental: To evaluate the interaction of the compounds, both organic and Cu(II) complexes, with bovine serum albumin (BSA) fluorescence spectra were measured. In a typical fluorescence experiment, to a solution of 1.5 μM of BSA in the same buffer, successive aliquots of a stock solution of each compound in DMSO were added directly to the cuvette (optical path 1.0 cm). The fluorescence emission was recorded between 310 and 600 nm with excitation at 295 nm. The final DMSO % was kept below 2% (v/v). The Stern-Volmer plots were built using the emission at 340 nm and blank samples (in the absence of BSA) with the same concentration of the complexes were recorded and subsequently subtracted from the corresponding emission spectra containing the fluorophore. Moreover, the fluorescence emission intensity was corrected for reabsorption and inner filter effects using UV-Vis absorption data recorded for each sample, since all complexes absorb in the measured wavelength range (19, 20).
The interaction of the organic compounds and Cu(II) complexes with BSA was monitored by studying the quenching of albumin’s fluorescence emission with increasing concentrations of the complexes (25). Overall, the intensity of the Trp emission decreases with the addition of the complexes, except for 8 (see Figs. S19). The Stern-Volmer relationship was used to analyse the fluorescence quenching process:
where I0 and I are the fluorescence intensities in the absence and in the presence of quencher, kq is the bimolecular quenching rate, τ0 is the fluorophore lifetime in the absence of the quencher (6.22 ns) (26) and [Q] is the quencher concentration. […] This linear relationship is obeyed for all complexes except 5, where a downward curvature is observed. This can be an indication of two distinct binding sites, corresponding to two populations of fluorophores, one being accessible and other inaccessible or buried inside the protein. In such cases, the Stern-Volmer relation can be modified to (27):
where ΔI = I0 – I, Ka is the Stern-Volmer constant for the accessible fraction and fa is the fraction of accessible fluorophore. […] As first approximation, the total concentration of quencher was used to check the quenching mechanism. […] As all systems presented high absorbance values in the measured range of wavelengths, no excess of quencher was used and, therefore, 1:1 species will be assumed for these interactions.

[4] = system: Klebsiella pneumoniae ATCC 49619; assay: MIC determination; format: cell-based; conditions: K. pneumoniae; 18 h
Experimental: (§1) Wild-type Escherichia coli K-12 AG100 strain [argE3 thi-1 rpsL xyl mtl Δ(gal-uvrB) supE44] expressing the AcrAB TolC efflux pump at its basal level and Klebsiella pneumoniae ATCC 49619 Gram-negative strains were studied in the experiments. Sensitive (ATCC 25928) and the methicillin-resistant (MRSA 272123) subspecies of Staphylococcus aureus were used as Gram-positive strains in the assays.
(§2) Minimum inhibitory concentration (MIC) values of selected compounds were determined in 96-well plates based on the Clinical and Laboratory Standard Institute guidelines (CLSI guidelines). The stock solutions of the compounds were dissolved in DMSO using 1.3 μL of Mueller Hinton Broth, and then two-fold serial dilutions were performed. The starting concentration of the compounds was 100 μM. Then 10^‒4 dilution of an overnight bacterial culture in 100 μL of medium was added to each well, except for the medium control wells.

[5] = system: Escherichia coli K-12 AG100; assay: MIC determination; format: cell-based; conditions: E. coli; 18 h
Experimental: as §1, §2

[6] = system: S. aureus ATCC 25928; assay: MIC determination; format: cell-based, Staphylococcus aureus; conditions: S. aureus ATCC 25928 (sensitive); 18 h
Experimental: as §1, §2

[7] = system: calf thymus DNA (ctDNA); assay: ctDNA thermal denaturation; format: binding; conditions: for ΔTm: equimolar amounts of compound and DNA, HEPES 0.01 M, pH 7.4; for melting temperature Tm of ctDNA with compound: equimolar mixtures (25 µM), 10 mM HEPES pH 7.4, 1.5% DMSO
Source text: Nucleic acids are potential targets for metallodrugs and, consequently, evaluation of the interactions of the compounds with DNA and corresponding binding strength is relevant under the scope of this work. Thermal denaturation is a useful technique to measure the stability of the secondary structure of DNA (29). Under the chosen experimental conditions (HEPES, 0.01 M, pH 7.4), it is possible to follow the denaturation of calf thymus DNA (ctDNA) double strand.

Compound | IC50 [1] [µM] | IC50 [2] [µM] | Affinity constant K ± SD [3] | MIC [4] [µM] | MIC [5] [µM] | MIC [6] [µM] | ΔTm [7] [°C] | melting temperature Tm of ctDNA with compound [7] [°C] | Stern-Volmer constant for the accessible fraction Ka ([3]; modified Stern-Volmer) [M⁻¹] | fraction of accessible fluorophore fa ([3]; modified Stern-Volmer)
CC(=O)[O-].O=C(NN=Cc1ccc2cccc([O-])c2n1)c1ccccc1.[Cu+2] [Complex 1, [Cu(HL^1)(AcO)]] | 2.7 ± 0.03 | 4.2 ± 0.2 | (8.4 ± 6.6) × 10^7 | > 100 | > 100 | 50 | >25.0 | – | – | –
[Cu+2].[O-]C(=NN=Cc1ccc2cccc([O-])c2n1)c1ccc(F)cc1 [Complex 3, [Cu(L^3)]3] | 5.1 ± 0.3 | 8.9 ± 0.2 | (3.4 ± 0.7) × 10^5 | > 100 | > 100 | 100 | 13.0 | 73.2 ± 1.7 | – | –
COc1ccc(C([O-])=NN=Cc2ccc3cccc([O-])c3n2)cc1.[Cu+2] [Complex 5, [Cu(L^5)]3] | 3.4 ± 0.1 | 5.1 ± 0.01 | (1.05 ± 0.04) × 10^5 | > 100 | > 100 | 100 | 17.7 | 77.9 ± 1.3 | 2.1e+06 | 0.24
